Values after ≈ are worked out from the molar mass of the structure shown. Structures can show the parent of a compound that is named as a salt. Where two headings read alike, the source gives them in different places.

We go through four molecules from US20030086972A1, “Hydrogel-driven drug dosage form” (priority 2000, published 2003).

A short description of data set [1]: Aqueous solubility of the drug.
For data set [2] the following is noted: cited from earlier work.

“4-[3-[4-(2-methylimidazol-1 -yl) phenylthio]phenyl]-3,4,5,6-tetrahydro-2H-pyran-4-carboxamide hemifumarate [Drug 3]” registered a solubility in data set [1] (pH 4) of 3.7 mgA/mL.
In turn, `CN[C@H]1CC[C@@H](c2ccc(Cl)c(Cl)c2)c2ccccc21` [Drug 2, sertraline HCl] yielded a solubility in data set [1] (aqueous, pH 7, aqueous buffer) of 200 µg/mL.
Regarding `COc1cc2nc(N3CCCN(C(=O)N4CCOCC4)CC3)cc(N)c2c(-c2ccc(F)cc2)c1OC` [Drug 5, 4-amino-5-(4-fluorophenyl)-6,7-dimethoxy-2-[4-(morpholinocarbonyl)perhydro-1,4-diazepin-1-yl]quinoline], the solubility in data set [1] (aqueous, pH 7.6, aqueous buffer) is 400 µg/mL (≈ 785 µM).
With `CN[C@H]1CC[C@@H](c2ccc(Cl)c(Cl)c2)c2ccccc21` [sertraline], the “solubility (in words)” value in data set [2] (low pH) was “moderate solubility”; in data set [2] (pH of about 7.5), “extremely low solubility”; in data set [2] (pH values above 5), “low solubility”.
